Data reported in patent US20260097037A1, “FUSED RING COMPOUND HAVING GLP-1 RECEPTOR AGONIST EFFECT” (Shionogi & Co., Ltd., priority 2022, published 2026).

Target: T1, Human GLP-1 receptor stably expressing cells (hGLP-1R/CHO-K1 cells) (Homo sapiens, UniProt P43220)
T1 construct: expressed in transfected cells
Assay: Measurement of GLP-1 receptor agonist activity (cAMP assay)
Type: cell-based
Conditions: for Emax: CHO-K1, maximum effect, cAMP with 2 nM human GLP-1 (7-36) = 100%, DMSO only = 0%, read-out: Emax; for EC50: increase in cAMP concentration in hGLP-1R/CHO-K1 cells, 37° C. 1 hour
Procedure: Test Example 1: Measurement of GLP-1 Receptor Agonist Activity
Human GLP-1 receptor stably expressing cells (hGLP-1R/CHO-K1 cells) are cultured in an a-MEM medium (Sigma) containing 10% FBS (Hyclone), 2% GlutaMAX (Gibco), 1% G418 (Nacalai Tesque), and 1% Penicillin-Streptomycin Mixed Solution (Sigma) at 37° C. under 5% CO2 conditions, and recovered by treating a 10 fold diluted 5.0 g/1-trypsin/5.3 mmol/1-EDTA solution (Nacalai Tesque) and cryopreserved.
A DMSO solution containing the compound of the present invention or human GLP-1 (7-36) (Phoenix Pharmaceuticals) is dispensed into a 384-well microplate (Greiner) at 62.5 nL/well, and in addition, 400 μM Forskolin (Nacalai Tesque) is dispensed therein at 7.5 nL/well. Subsequently, the frozen GLP-1 R/CHO-K1 cells are thawed in a thermostatic bath at 37° C., suspended in HBSS buffer (GIBCO) containing 0.1% BSA (Sigma), 20 mM HEPES, 0.1 mM IBMX (Sigma), and 0.2 mM RO20-1724 (Calbiochem) at 2×10^4 cells/mL, and the cell suspension is added at 6 μL/well. The solution was incubated at 37° C. for 1 hour and intracellular cAMP concentration is measured using cAMP Gs dynamic kit (Cisbio) according to the protocol attached to the product. Specifically, a cAMP-d2/Anti-cAMP-Cryptate (1/1) mixture solution is added in a total amount of 6 μL/well, and is incubated at room temperature for 1 hour, and then, time-resolved fluorescence is measured using PHERAstar (BMG Labtech).
Assuming that the cAMP concentration when human GLP-1 (7-36) is dispensed to a final concentration of 2 nM is 100% and the cAMP concentration when only DMSO is dispensed is 0%, the 50% effective concentration (EC50) and the maximum effect (Emax) of the compound of the present invention are calculated using an increase in the cAMP concentration as an index, using TIBCO Spotfire (TIBCO Software). The dilution concentration or the dilution solvent are changed as necessary.
The compounds of the present invention were tested essentially as described above.

T1 sequence (P43220 24-463): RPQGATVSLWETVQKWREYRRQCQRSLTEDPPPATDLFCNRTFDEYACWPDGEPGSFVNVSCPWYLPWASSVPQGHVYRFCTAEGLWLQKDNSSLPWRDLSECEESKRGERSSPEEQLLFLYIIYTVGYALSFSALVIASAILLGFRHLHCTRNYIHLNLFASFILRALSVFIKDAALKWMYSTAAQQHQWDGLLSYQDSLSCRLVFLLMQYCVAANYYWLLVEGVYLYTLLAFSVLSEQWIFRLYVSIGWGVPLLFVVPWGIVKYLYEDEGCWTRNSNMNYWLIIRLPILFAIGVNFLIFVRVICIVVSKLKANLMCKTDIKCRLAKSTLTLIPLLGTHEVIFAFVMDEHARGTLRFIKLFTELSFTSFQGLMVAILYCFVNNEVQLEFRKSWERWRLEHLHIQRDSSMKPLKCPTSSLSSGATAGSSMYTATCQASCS

Structure (SMILES)	Emax [%]	EC50 [nM]
C[C@H]1c2nc(NCc3ccc(Cl)cc3F)c(C(F)(F)F)cc2CCN1Cc1nc2ccc(C(=O)O)cc2n1C[C@@H]1CCO1 [Compound I-094]	103	0.256
C[C@H]1c2nc(OCc3ccc(Cl)cc3)c(C(F)F)cc2CCN1Cc1nc2ccc(C(=O)O)cc2n1C[C@@H]1CCO1 [Compound I-052]	115	0.252
C[C@H]1c2nc(OCc3ccc(Cl)cc3F)c(Cl)cc2CCN1Cc1nc2ccc(C(=O)O)c(F)c2n1C[C@@H]1CCO1 [Compound I-045]	131	0.0345
COc1cc(C(=O)O)cc2c1nc(CN1CCc3cc(C(F)F)c(OCc4ccc(Cl)cc4F)nc3[C@@H]1C)n2C[C@@H]1CCO1 [Compound I-128]	128	0.0122
C[C@H]1c2nc(OCc3ccc(Cl)cn3)c(C(F)F)cc2CCN1Cc1nc2c(F)cc(C(=O)O)cc2n1C[C@@H]1CCO1 [Compound I-112]	110	0.191
C[C@H]1c2nc(OCc3c(F)cc(Cl)cc3F)c(C#N)cc2CCN1Cc1nc2c(Cl)cc(C(=O)O)cc2n1C[C@@H]1CCO1 [Compound I-185]	122	0.0569
C[C@H]1c2nc(OCc3ccc(F)cc3F)c(C(F)F)cc2CCN1Cc1nc2c(F)cc(C(=O)O)cc2n1C[C@@H]1CCO1 [Compound I-110]	113	0.0706
C[C@H]1c2nc(OCc3cc(F)c(Cl)cc3F)c(Cl)cc2CCN1Cc1nc2ccc(C(=O)O)cc2n1C[C@@H]1CCO1 [Compound I-021]	112	0.0833
C[C@H]1c2nc(OCc3ccc(F)cc3F)c(Cl)cc2CCN1Cc1nc2ccc(C(=O)O)c(F)c2n1C[C@@H]1CCO1 [Compound I-037]	122	0.105
COc1cc(C(=O)O)cc2c1nc(CN1CCc3cc(C(F)(F)F)c(NCc4ccc(C#N)cc4F)nc3[C@@H]1C)n2C[C@@H]1CCO1 [Compound I-195]	123	0.0514
C[C@H]1c2c(ccc3c2OC(C)(c2ccc(Cl)cn2)O3)CCN1Cc1nc2ccc(C(=O)O)cc2n1C[C@@H]1CCO1 (stereo partly shown) [Compound I-093]	96.3	6.34
COc1cc(C(=O)O)cc2c1nc(CN1CCc3cc(C(F)(F)F)c(OCc4cc(Cl)n(C)n4)nc3[C@@H]1C)n2C[C@@H]1CCO1 [Compound I-155]	96.3	0.87
C[C@H]1c2cc(OCc3c(F)cc(F)cc3F)c(Cl)cc2CCN1Cc1nc2ccc(C(=O)O)c(F)c2n1C[C@@H]1CCO1 [Compound I-044]	126	0.109
C[C@H]1c2nc(OCc3ccc(Cl)cc3)c(Cl)cc2CCN1Cc1nc2c(F)cc(C(=O)O)cc2n1C[C@@H]1CCO1 [Compound I-082]	100	0.0849
C[C@H]1c2cc(OCc3ccc(F)cc3F)c(C(F)F)cc2CCN1Cc1nc2ccc(C(=O)O)cc2n1C[C@@H]1CCO1 [Compound I-008]	107	3.89
C[C@H]1c2nc(NCc3ccc(Cl)cn3)c(C(F)(F)F)cc2CCN1Cc1nc2c(F)cc(C(=O)O)cc2n1C[C@@H]1CCO1 [Compound I-196]	108	0.611
C[C@H]1c2nc(OCc3ccc(Cl)cc3F)c(C#N)cc2CCN1Cc1nc2c(Cl)cc(C(=O)O)cc2n1C[C@@H]1CCO1 [Compound I-184]	118	0.073
C[C@H]1c2nc(OCc3ccc(Cl)cc3Cl)c(Cl)cc2CCN1Cc1nc2ccc(C(=O)O)cc2n1C[C@@H]1CCO1 [Compound I-020]	135	0.0972
C[C@H]1c2nc(OCc3ccc(C#N)cc3F)c(Cl)cc2CCN1Cc1nc2ccc(C(=O)O)cc2n1C[C@@H]1CCO1 [Compound I-022]	112	0.125

Structure (SMILES)	Emax [%]	EC50 [nM]
C[C@H]1c2nc(OCc3ccc(Cl)cc3F)c(C(F)(F)F)cc2CCN1Cc1nc2c(-c3ccn(C)n3)cc(C(=O)O)cc2n1C[C@@H]1CCO1 [Compound I-064]	102	0.345
C[C@H]1c2nc(OCc3ccc(F)cc3)c(Cl)cc2CCN1Cc1nc2c(F)cc(C(=O)O)cc2n1C[C@@H]1CCO1 [Compound I-087]	103	0.248
Cc1noc(COc2nc3c(cc2C(F)(F)F)CCN(Cc2nc4ccc(C(=O)O)cc4n2C[C@@H]2CCO2)[C@H]3C)n1 [Compound I-162]	88	26
C[C@H]1c2nc(OCc3ccc(F)cc3F)c(C(F)F)cc2CCN1Cc1nc2ccc(C(=O)O)cc2n1C[C@@H]1CCO1 [Compound I-056]	108	0.354
COc1cc(C(=O)O)cc2c1nc(CN1CCc3cc(C#N)c(OCc4ccc(Cl)cc4F)nc3[C@@H]1C)n2C[C@@H]1CCO1 [Compound I-139]	118	0.0326
Cc1ccc(COc2nc3c(cc2C(F)F)CCN(Cc2nc4ccc(C(=O)O)c(F)c4n2C[C@@H]2CCO2)[C@H]3C)cc1 [Compound I-119]	120	0.148
C[C@H]1c2nc(OCc3ccc(F)cc3F)c(Cl)cc2CCN1Cc1nc2ccc(C(=O)O)nc2n1C[C@@H]1CCO1 [Compound I-029]	105	0.592
C[C@H]1c2nc(OCc3cc(F)c(Cl)cc3F)c(C(F)F)cc2CCN1Cc1nc2ccc(C(=O)O)c(F)c2n1C[C@@H]1CCO1 [Compound I-126]	111	0.0635
C[C@H]1c2nc(OCc3ccc(Cl)cc3)c(C(F)F)cc2CCN1Cc1nc2c(F)cc(C(=O)O)cc2n1C[C@@H]1CCO1 [Compound I-109]	112	0.101
CC1c2nc(OCc3ccc(Cl)cc3F)ncc2CCN1Cc1nc2ccc(C(=O)O)cc2n1C[C@@H]1CCO1 (stereo partly shown) [Compound I-078]	96	14.8
C[C@H]1c2c(cc(C(F)(F)F)c3c2O[C@@](C)(c2ccc(Cl)cc2F)O3)CCN1Cc1nc2ccc(C(=O)O)cc2n1C[C@@H]1CCO1 [Compound I-047]	146	0.903
COc1cc(C(=O)O)cc2c1nc(CN1CCc3cc(Cl)c(OCc4c(F)cc(F)cc4F)nc3[C@@H]1C)n2C[C@@H]1CCO1 [Compound I-075]	118	0.0493
C[C@H]1c2nc(OCc3c(F)cc(F)cc3F)c(C(F)F)cc2CCN1Cc1nc2ccc(C(=O)O)c(F)c2n1C[C@@H]1CCO1 [Compound I-125]	123	0.0856
C[C@H]1c2cc(OCc3ccc(F)cc3)c(C(F)F)cc2CCN1Cc1nc2ccc(C(=O)O)cc2n1C[C@@H]1CCO1 [Compound I-011]	102	16.1
C[C@H]1c2nc(OCc3ccccc3Cl)c(C(F)F)cc2CCN1Cc1nc2ccc(C(=O)O)c(F)c2n1C[C@@H]1CCO1 [Compound I-120]	121	0.481
C[C@H]1c2nc(OCc3cnn(C)n3)c(C(F)(F)F)cc2CCN1Cc1nc2ccc(C(=O)O)cc2n1C[C@@H]1CCO1 [Compound I-142]	117	7.33
C[C@H]1c2nc(SCc3ccc(Cl)cc3F)c(C(F)(F)F)cc2CCN1Cc1nc2ccc(C(=O)O)cc2n1C[C@@H]1CCO1 [Compound I-096]	103	0.247
C[C@H]1c2nc(OCc3ccc(F)cc3)c(C(F)F)cc2CCN1Cc1nc2ccc(C(=O)O)cc2n1C[C@@H]1CCO1 [Compound I-051]	118	1.02
C[C@H]1c2nc(OCc3ccc(F)cc3)c(Cl)cc2CCN1Cc1nc2ccc(C(=O)O)c(F)c2n1C[C@@H]1CCO1 [Compound I-042]	127	0.208
